Measurements taken from patent publication US4728640A, “Treatment of dysmenorrhea” (Roussel Uclaf, priority 1985, dated 1988).

What was measured:
[1] = test system: testicular steroidogensis; test: Inhibitory activity against testicular steroidogenesis in healthy men, single intranasal dose; type: in vivo; conditions: for steroid/testosterone level on the fourth day after administration: fourth day (until 6th day)
Procedure: The inhibitory activity of [D Ser (tbu)^6 of des Gly NH2^10 ] LH-RH ethylamide (described in German application Ser. No. 2,438,350) against testicular steroidogensis in men in good health was determined on men in good health aged 30 to 40 years. The said product was administered intranasally at a dose of 500 μg in a few drops of distilled water at 8 A.M. on the third day of the test. For 2 days prior to the treatment and for 6 days after the treatment, samples of blood were taken daily at 8 A.M., 3 P.M. and 10 P.M. On the day of administration of the LH-RH agonist, blood samples were taken at 11 A.M. and 6 P.M.
The seric concentrations of LH and FSH were measured by radioimmuno-logic dosages with double antibodies and the antibodies for measuring LH and FSH were furnished by the National Pituitary Agency of N.I.H. in Bethesda, Md. The seric concentrations of steroids was measured by radioimmuno-logic dosages in which one ml of serum was extracted with ether and the steroids were separated on a LH-20 column before measuring with radioimmuno-logic dosages. The radioimmuno-logic dosage results were determined by a program derived from model II of Rodbard et al [Second Karolinska Symposium on Research Methods in Reproductive Endrocrinology, Diczfalusky Editor, Copenhague (1970), p. 79-103]. The statistical significance was determined by the "multiple level test" of Duncan-Kramer [Kramer, Biometrics, Vol 12 (1956), p. 307]. The results are shown in the graphs on sheet 1 of the Figures filed herewith.

[2] = test system: testicular steriodogenosis; test: Inhibitory activity on testicular steroidogenesis in a patient with prostate cancer, intranasal twice a day; type: in vivo, human; conditions: 500 μg intranasally twice a day
Text: The inhibitory activity of [D Ser (tbu)^6 des Gly NH2^10 ] […] The results are reported in the graphs of sheet 2 of the Figures.

ovarian steroidogenosis = test: Inhibitory activity on ovarian steroidogenesis in women, intranasal; type: in vivo; conditions: for reduction of seric levels of progesterone compared to the controls: typical subject (sheet 3)
Procedure: The inhibitory activity of [D Ser (tbu)^6 des Gly NH2^10 ] LH-RH ethylamide on ovarian steroidogenosis in women was determined on 6 women aged 26 to 35 years with normal and regular menstrual cycles and without prior endocrinal or gynecological problems. […] Two drops of a solution containing 500 μg of [D Ser (tbu)^6 des Gly NH2^10 ] LH-RH ethylamide were deposited on each nostril at 8 A.M. and 5 P.M. of a day between the 4th and 9th day after the peak of LH-day 0. Daily blood samples were taken between 4 and 6 P.M. to measure seric levels of LH, FSH, progesterone and estradiol which were determined by radioimmuno-logictests with double antibodies. The antibodies to measure LH and FSH were furnished by the National Pituitory Agency of N.I.H. of Bethesda, Md.
Estradiol and progesterone were measured with highly specific antibodies developed against 7-(O-carboxymethyl)-oxime of estradiol and 12-(O-carboxymethyl)-oxime of progesterone, respectively [3H]17β-estradiol and ^125 I-progesterone-12-[O-carboxymethyl)-oxime] used as tracers. The serum was extracted with benzene and the steroids were separated with a LH-20 column before the determination. The radioimmunological results were exploited by the program derived from model II of Rodbard and Lewald as in Example 1 and the statistical significance was measured by the multiple level test of Ducan-Kramer of Example 1. The results are shown in the graphs of sheets 3 to 5 of the Figures.

[3] = human, single intranasal dose 500 μg
[4] = men, intranasal 500 μg, 3rd day following administration

For `CCNC(=O)[C@@H]1CCCN1C(=O)[C@H](CCCNC(=N)N)NC(=O)[C@H](CC(C)C)NC(=O)[C@@H](COC(C)(C)C)NC(=O)[C@H](Cc1ccc(O)cc1)NC(=O)[C@H](CO)NC(=O)[C@H](Cc1c[nH]c2ccccc12)NC(=O)[C@H](Cc1c[nH]cn1)NC(=O)[C@@H]1CCC(=O)N1` [[D Ser (tbu)^6 des Gly NH2^10] LH-RH ethylamide], the “duration of the drop of seric levels of testicular steroids (testosterone and its precursors)” value [1, 3] was 3 days, the “diminution of the level of testosterone” value ([1]; human, single intranasal dose 500 μg, 3rd day following administration) was 50% and the “steroid/testosterone level on the fourth day after administration” value [1, 3] was “returned to normal”. For the same compound, the “steroid/testosterone level on the fourth day after administration” value ([1]; human, single intranasal dose 500 μg, listed as the peptide) was “return to normal levels”, the “LH and FSH plasmatic levels” value ([1]; men, intranasal 500 μg) was “increase” and the “concentration of 17-OH-progesterone relative to initial control values” [1, 4] was 40%. For the same compound, the “concentration of testosterone relative to initial control values” [1, 4] was 50%, the “seric concentration of pregnenolone, 17-OH-pregnenolone, progesterone, 17-OH-progesterone, Δ5-androstene-3β,17β-diol and testosterone” value ([1]; men, intranasal 500 μg, day of treatment) was “increased” and the “level of androgenic steroids” value [2] was “diminution”. The level of testosterone ([2]; two weeks of treatment) was “stabilized at a very low level”, the “level of seric progesterone, course” value (ovarian steroidogenosis; 2 cycles of post-treatment) was “return to normal” and the “level of seric progesterone, course” value (ovarian steroidogenosis; 2 cycles of treatment) was “accelerated diminution”. The “reduction of the level of progesterone compared to the controls” value (ovarian steroidogenosis; 12 cycles of treatment (sheet 5), scale 13 to 127%) was 46%, the “progesterone level as % of pretreatment cycles (base 100%)” value (ovarian steroidogenosis; cycles of post-treatment (12 cycles)) was 99% and the “progesterone level as % of pretreatment cycles (base 100%)” value (ovarian steroidogenosis; cycles of treatment (12 cycles)) was 46%. The “reduction of seric levels of progesterone compared to the controls” value (ovarian steroidogenosis; first cycle of treatment) was 13% and the “reduction of seric levels of progesterone compared to the controls” value (ovarian steroidogenosis; second cycle of treatment) was 34%.
